Results as given in patent US12404263B2, “ASK1 inhibiting agents” (BIOGEN MA INC., priority 2018, dated 2025).

Tests used:
GST-hASK1 = target: T1, GST-hASK1 (Homo sapiens, UniProt Q99683); assay: ASK1 TR-FRET assay; type: biochemical; conditions: 5 nM GST-hASK1, 100 μM ATP, 2 μM STK Substrate 3
T1 construct: GST (N); purchased Life Technologies PV4011
T1 sequence (Q99683 1-1374): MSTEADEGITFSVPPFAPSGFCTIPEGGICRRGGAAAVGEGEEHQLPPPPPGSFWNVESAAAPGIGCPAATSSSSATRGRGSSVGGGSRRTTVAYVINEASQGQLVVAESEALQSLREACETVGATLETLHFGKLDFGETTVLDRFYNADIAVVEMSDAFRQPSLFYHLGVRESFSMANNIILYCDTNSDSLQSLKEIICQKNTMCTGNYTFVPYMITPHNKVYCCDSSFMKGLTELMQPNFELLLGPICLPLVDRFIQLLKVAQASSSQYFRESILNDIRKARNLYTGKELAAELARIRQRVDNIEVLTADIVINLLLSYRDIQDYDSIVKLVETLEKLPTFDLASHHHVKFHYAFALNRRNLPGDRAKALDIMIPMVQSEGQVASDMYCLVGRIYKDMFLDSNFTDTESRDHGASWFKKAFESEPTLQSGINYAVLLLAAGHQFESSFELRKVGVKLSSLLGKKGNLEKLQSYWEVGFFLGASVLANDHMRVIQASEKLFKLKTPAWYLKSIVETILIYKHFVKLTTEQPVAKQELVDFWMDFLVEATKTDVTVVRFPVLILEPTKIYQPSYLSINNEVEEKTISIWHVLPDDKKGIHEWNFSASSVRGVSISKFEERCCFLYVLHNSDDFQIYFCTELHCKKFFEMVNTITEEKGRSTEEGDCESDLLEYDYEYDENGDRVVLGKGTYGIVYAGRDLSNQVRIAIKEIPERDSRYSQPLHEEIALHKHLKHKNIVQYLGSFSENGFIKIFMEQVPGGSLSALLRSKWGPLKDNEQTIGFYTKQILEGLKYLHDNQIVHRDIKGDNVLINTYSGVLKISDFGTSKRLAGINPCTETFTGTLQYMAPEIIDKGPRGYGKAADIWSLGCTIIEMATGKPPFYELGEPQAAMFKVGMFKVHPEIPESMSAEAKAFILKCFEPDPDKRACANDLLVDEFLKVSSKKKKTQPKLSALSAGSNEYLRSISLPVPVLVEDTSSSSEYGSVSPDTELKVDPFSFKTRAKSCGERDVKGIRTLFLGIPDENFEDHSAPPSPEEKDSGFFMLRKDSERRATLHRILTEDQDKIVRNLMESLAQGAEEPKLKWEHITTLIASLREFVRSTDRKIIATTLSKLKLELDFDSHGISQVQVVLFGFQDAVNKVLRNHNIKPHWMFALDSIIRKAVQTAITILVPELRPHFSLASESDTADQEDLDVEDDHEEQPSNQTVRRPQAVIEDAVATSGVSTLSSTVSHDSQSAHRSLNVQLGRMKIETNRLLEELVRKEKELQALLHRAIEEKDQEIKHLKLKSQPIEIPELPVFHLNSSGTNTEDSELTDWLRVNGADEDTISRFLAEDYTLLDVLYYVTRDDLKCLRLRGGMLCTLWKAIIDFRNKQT
Description: The protein kinase activity of 5 nM GST-hASK1 (Life Technologies PV4011) was assayed with 100 μM ATP and 2 μM of HTRF biotinylated STK Substrate 3 (CisBio Kit 62ST3PEJ), at ambient temperature in 25 mM Hepes, pH 7.5, 50 mM NaCl, 10 mM MgCl2, 0.02% Brij-35, 1 mM DTT, and 1% DMSO.
Briefly, 20 μL aliquots of a 1.5× stock of ASK1, STK Substrate 3 and Assay Buffer were distributed in the wells of a white 384 well Optiplate, prior to addition of 0.3 μL of a 100× compound stock in DMSO, or DMSO alone in Blank and 100% Activity Controls. After a 10 minute pre-incubation, ASK1 protein kinase activity was initiated by addition of 10 μL of 300 μM ATP. After 5 hours, the kinase activity was quenched by addition of 30 μL of CisBio Kit 62ST3PEJ components: 0.5 μM of Streptavidin XL665; and 100×STK Antibody-Eu Cryptate; in Detection Buffer containing sufficient EDTA to chelate Mg^2+ in the assay buffer. The plates were read after 65 minutes in an Envision Plate reader, with the following components and settings: Top Mirror, Lance Delfia Dual (662); UV Ex Filter, 320 nm (111); Emission Filter for donor, 615 nm (203); Emission Filter for Acceptor; 665 nm (205); and 100 μsec delay, with 665/615 ratio output. […]

[1] = target: T2, ASK1 T838 auto phosphorylation (Homo sapiens, UniProt Q99683); assay: ASK1 (AUTO PHOS T838) assay in HEK-293T cells, MSD format; type: cell-based; conditions: HEK-293T cells transfected with ASK1-V5, 1 hr compound incubation; read-out: IC50
T2 construct: transfected with 9 μg of ASK1-V5 tagged full length plasmid; expressed in transfected cells; host or cells: HEK-293T
T2 sequence (Q99683 1-1374): T1 sequence (Q99683 1-1374)
Description: ASK1 T838 auto phosphorylation was measured in HEK-293T cells using MSD assay format. HEK 293T cells were seeded in 15 cm plates at a density of 18 million cells and 20 mL DMEM with 10% FBS, Pen/Strep media. The plates were incubated at 37° C. overnight. Media on plates was changed to OPTI-MEM, serum free media and cells were transfected with 9 μg of ASK1-V5 tagged full length plasmid using Lipofectamine 2000 (Invitrogen) and the plates were incubated at 37° C. overnight. Cells were trypsinized, counted on Nexcellometer and plated into 96 well tissue culture plates with 100,000 cells/well and 200 μL media. Cells were incubated for 4 hr at 37° C. then ASK1 compounds were added using a HP 300e. Compounds were tested at 20 μM with 3 fold, 10 point dilution points then incubated for 1 hr at 37° C. A lysis buffer (Cell Signaling) was prepared with protease and phosphatase inhibitor and maintained at 4° C. until use. Media from cells was discarded and 120 μL of cold lysis buffer was added to the cells, the plate was shaken 4° C. for 1 hr. Lysate was mixed using Apricot liquid handler; aspirating up and down 16 times at high speed using 50 μL volume. 50 μL of cell lysates were transferred to a pre-coated MSD plates containing mouse anti-V5 antibody (1:500 dilution) and washed 3× with MSD wash buffer (TBST) and blocked with a 3% BSA solution. Plates were then incubated on a plate shaker overnight at 4° C. Plates were washed 3× with MSD wash buffer and 50 μL of rabbit anti-pASK1 T838 antibody was added to the wells and incubated for 2 hr at room temperature on a plate shaker. Plates were then washed and 50 μL of goat anti-rabbit sulfa-tag (1:500 dilution) was added to wells, and incubated for 1 hr at room temperature on a plate shaker. Plates were washed 3× and 150 μL of 2×MSD Read buffer was added to wells. Plates were immediately read on a MSD Instrument Reader where chemoluminecense signal was measured. Data was analyzed using Graph Pad or Genedata, the data was normalized and plotted, % activity versus log of compound concentration. The IC50 values were obtained from a 4 parameter fit.

[2] = In vivo brain penetration (rat Kpuu); conditions: brain and plasma (unbound concentrations), IV infusion four hours, 1 mg/kg, steady state
Description: To evaluate the CNS penetration of the compounds described herein, several compounds were selected for in vivo rat Kpuu studies. In these experiments the compounds are administered via an IV infusion (using N,N-dimethylacetamide:ethanol:1,2-propylene glycol:water in a 1:1:3:5 ratio as the vehicle) in the carotid artery for a period of four hours (1 mg/kg, 0.1 mg/mL) to reach steady state. After this time the plasma and brain concentration levels are quantified, and the values are adjusted by the measured protein binding in plasma and brain homogenate to calculate the K puu (see Di, L.; Kerns, E. H. Blood-Brain Barrier in Drug Discovery (Wiley)) according to the equation below. […]
Plasma and brain protein binding values were generated via the Rapid Equilibrium Dialysis method. […] At the conclusion of incubation samples were taken from both matrix and buffered compartments, matrix-matched using blank buffer and matrix, extracted with acetonitrile, diluted with water, and analyzed utilizing an Agilent RapidFire 365 high-throughput LC coupled with MS/MS detection via an AB Sciex 5500. Free fractions (fu) were then calculated by comparing internal standard/analyte peak-area ratios of matrix and buffered compartments.
Total drug concentration in plasma and brain tissue was measured via well-established bioanalytical extraction (protein precipitation) and detection methods (LC-MS/MS). […]

ASK1/MAP3K5 = target: T3, ASK1/MAP3K5 (Homo sapiens, UniProt Q99683); assay: ASK1/MAP3K5 assay by Reaction Biology Corp. (33P-ATP filter-binding); type: biochemical; conditions: 20 μM MBP, 100 μM ATP
T3 construct: purchased Reaction Biology Corp. (Malvern, PA)
T3 sequence (Q99683 1-1374): T1 sequence (Q99683 1-1374)
Description: Alternatively, the protein kinase inhibitory activity of the compounds described herein were tested using the ASK1/MAP3K5 assay by Reaction Biology Corp. (Malvern, PA). The assay procedure follows (and is also available on the Reaction Biology Corp. website). • Base Reaction Buffer: 20 mM Hepes (pH 7.5), 10 mM MgCl2, 1 mM EGTA, 0.02% Brij35, 0.02 mg/mL BSA, 0.1 mM Na3VO4, 2 mM DTT, 1% DMSO; • Substrate: 20 μM of myelin basic protein (MBP) and 100 μM ATP; • Protein kinase: ASK1/MAP3K5. Reaction Procedure: • 1. Prepare indicated substrate in freshly prepared Base Reaction Buffer. • 2. Deliver any required cofactors to the substrate solution. • 3. Deliver indicated kinase into the substrate solution and gently mix. • 4. Deliver compounds in DMSO into the kinase reaction mixture by Acoustic; technology (Echo550; nanoliter range), incubate for 20 minutes at room temperature. • 5. Deliver ^33P-ATP (specific activity 10 μCi/μL) into the reaction mixture to initiate the reaction. • 6. Incubate kinase reaction for 2 hours at room temperature. • 7. Reactions are spotted onto P81 ion exchange paper. • 8. Detect kinase activity by filter-binding method.

MDR1 = target: T4, MDR1 (Homo sapiens, UniProt P08183); assay: MDR1-MDCK assay; type: in vitro ADME; conditions: read-out: in vitro ER (efflux ratio)
T4 construct: host or cells: MDCK
T4 sequence (P08183 whole entry): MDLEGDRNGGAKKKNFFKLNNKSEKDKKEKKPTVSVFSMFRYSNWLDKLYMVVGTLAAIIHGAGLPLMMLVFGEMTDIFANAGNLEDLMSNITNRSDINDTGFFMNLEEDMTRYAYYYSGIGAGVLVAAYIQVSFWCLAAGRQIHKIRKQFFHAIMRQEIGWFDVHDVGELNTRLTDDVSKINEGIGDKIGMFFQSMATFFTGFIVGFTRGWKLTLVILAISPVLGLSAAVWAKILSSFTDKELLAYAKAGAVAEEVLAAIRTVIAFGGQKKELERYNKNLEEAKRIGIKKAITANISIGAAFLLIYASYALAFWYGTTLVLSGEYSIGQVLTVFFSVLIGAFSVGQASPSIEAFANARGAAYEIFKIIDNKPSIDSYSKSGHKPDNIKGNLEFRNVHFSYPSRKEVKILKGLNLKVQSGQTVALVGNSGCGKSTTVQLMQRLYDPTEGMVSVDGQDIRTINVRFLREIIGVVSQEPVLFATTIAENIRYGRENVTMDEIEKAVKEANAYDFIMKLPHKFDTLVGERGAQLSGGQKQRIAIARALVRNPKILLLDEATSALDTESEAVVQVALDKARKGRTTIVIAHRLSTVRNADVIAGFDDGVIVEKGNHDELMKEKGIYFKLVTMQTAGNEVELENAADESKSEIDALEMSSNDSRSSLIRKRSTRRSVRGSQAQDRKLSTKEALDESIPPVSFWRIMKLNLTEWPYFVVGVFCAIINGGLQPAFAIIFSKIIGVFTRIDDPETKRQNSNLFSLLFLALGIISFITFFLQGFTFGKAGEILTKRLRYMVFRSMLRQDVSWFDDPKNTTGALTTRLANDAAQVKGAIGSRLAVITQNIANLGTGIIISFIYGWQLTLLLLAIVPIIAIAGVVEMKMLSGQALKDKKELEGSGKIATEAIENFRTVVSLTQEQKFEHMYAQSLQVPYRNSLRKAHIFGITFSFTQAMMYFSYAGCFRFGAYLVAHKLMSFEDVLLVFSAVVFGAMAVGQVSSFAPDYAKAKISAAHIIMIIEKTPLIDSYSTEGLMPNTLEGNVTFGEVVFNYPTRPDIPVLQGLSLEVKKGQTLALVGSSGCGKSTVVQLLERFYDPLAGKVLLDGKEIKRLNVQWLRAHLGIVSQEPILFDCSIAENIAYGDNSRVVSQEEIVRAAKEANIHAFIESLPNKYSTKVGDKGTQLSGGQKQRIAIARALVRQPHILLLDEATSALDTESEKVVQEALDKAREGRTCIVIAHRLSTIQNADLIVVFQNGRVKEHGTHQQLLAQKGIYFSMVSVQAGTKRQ
Description: To predict the CNS penetration of the compounds described herein, several compounds were selected for an in vitro MDR1-MDCK assay. These experiments are conducted using human MDR1 transfected MDCK cells (Absorption Systems, Exton, PA) and the compounds are tested at 1 μM concentration prepared in transport buffer (Hank's balanced salt solution with HEPES) and following the steps below: • 1. MDR1-MDCK cell are cultured for 7 days in 96 well transwell insert plates (Corning). Insert plates are washed before the assay and TEER (trans epithelial electric resistance) is measured. • 2. These plates are loaded with test compound solution 85 μL for A-B transport and 260 μL for B-A transport in the respective donor compartment. The volume of receiver buffer (Transport buffer supplemented with 1% BSA) in the respective receiver compartment is 250 μL and 75 μL. • 3. 10 μL samples is taken from donor compartment (T=0 timepoint) • 4. Assay plates are incubated for 120 minutes. • 5. At 120 minutes (T=120 timepoint) samples from respective donor (10 μL) and receiver (50 μL) compartments is taken. • 6. After addition of 40 μL transport buffer with BSA to donor samples, crash solution (Acetonitrile with internal standard, 110 μL) is added to all samples. • 7. […] Samples are analyzed using LC-MS/MS coupled with high throughput injection system. • 9. […]

IC50 (GST-hASK1) [nM] | IC50 [1] [nM] | Kp uu at 4 h [2] | IC50 (ASK1/MAP3K5) [nM] | efflux ratio at 120 min, 1 μM (MDR1) | SMILES
< 100 | ≤ 1000 | – | – | – | COc1ncccc1C(=O)Nc1cccc(-c2nncn2C(C)C)n1 [Compound 1, N-(6-(4-Isopropyl-4H-1,2,4-triazol-3-yl)pyridin-2-yl)-2-methoxynicotinamide]
– | ≤ 1000 | 0.41 | ≤ 100 | < 3 | COc1ncccc1C(=O)Nc1cccc(-c2nncn2C2(C(F)(F)F)CC2)n1 [Compound 16, 2-Methoxy-N-(6-(4-(1-(trifluoromethyl)cyclopropyl)-4H-1,2,4-triazol-3-yl)pyridin-2-yl)nicotinamide]
